# Tests used:
# [1] = test system: K562; experiment: Cell cycle arrest in human K562 cells as assessed as accumulation at G1 phase at 1 uM after 24 hrs by propidium iodide staining-based flow cytometric analysis relative to control; assay type: functional
# [2] = test system: WI-38; experiment: Cell cycle arrest in human WI38 cells as assessed as accumulation at sub-G1 phase at 0.1 uM after 48 hrs by propidium iodide staining-based flow cytometric analysis relative to control; conditions: wi-38, 48 h
# [3] = test system: MCF7; experiment: Cell cycle arrest in human MCF7 cells as assessed as accumulation at G2/M phase at 0.1 uM after 48 hrs by propidium iodide staining-based flow cytometric analysis relative to control; assay type: functional
# [4] = test system: K562; experiment: Cell cycle arrest in human K562 cells as assessed as accumulation at sub-G1 phase at 1 uM after 48 hrs by propidium iodide staining-based flow cytometric analysis relative to control; assay type: functional
# [5] = test system: MCF7; experiment: Cell cycle arrest in human MCF7 cells as assessed as accumulation at S phase at 1 uM after 24 hrs by propidium iodide staining-based flow cytometric analysis relative to control; assay type: functional
# [6] = test system: WI-38; experiment: Cell cycle arrest in human WI38 cells as assessed as accumulation at sub-G1 phase at 1 uM after 48 hrs by propidium iodide staining-based flow cytometric analysis relative to control; conditions: wi-38, 48 h
# [7] = test system: MCF7; experiment: Cell cycle arrest in human MCF7 cells as assessed as accumulation at G2/M phase at 0.1 uM after 24 hrs by propidium iodide staining-based flow cytometric analysis relative to control; assay type: functional
# [8] = test system: K562; experiment: Cell cycle arrest in human K562 cells as assessed as accumulation at S phase at 0.5 uM after 24 hrs by propidium iodide staining-based flow cytometric analysis relative to control; assay type: functional
# [9] = test system: K562; experiment: Cell cycle arrest in human K562 cells as assessed as accumulation at G2/M phase at 0.1 uM after 48 hrs by propidium iodide staining-based flow cytometric analysis relative to control; assay type: functional
# [10] = test system: WI-38; experiment: Antiproliferative activity against human WI38 cells after 72 hrs by MTT assay; assay type: cell-based
smiles,measurement,setting,value
COCn1c(CC(COCc2ccccc2)COCc2ccccc2)c(C)c(=O)n(COC)c1=O,Activity,[1],53%
same,Activity,[2],38.5%
same,Activity,[3],9.5%
same,Activity,[4],4.2%
same,Activity,[5],8.1%
same,Activity,[6],47.9%
same,Activity,[7],7.1%
same,Activity,[8],5.6%
same,Activity,[9],23.5%
same,IC50,"[10]; Homo sapiens, WI-38, 72 h",0.3 µM
same,Activity,"[10]; human, wi-38, 72 h",Dose-dependent effect

# Source: ChEMBL document CHEMBL3286303, “Synthesis and in vitro antiproliferative evaluation of novel N-alkylated 6-isobutyl- and propyl pyrimidine derivatives” (Bioorg Med Chem Lett, 2014)
